Assay results published in patent publication US10780069B2, “Use of GC-1 in transplant related population” (University of Pittsburgh—Of the Commonwealth System of …, priority 2017, dated 2020).
Entries after “also recorded” stand apart in the source; their conditions may differ.

Columns and labels:
hepatocytes [1] = test: Daily IP injections of GC-1 in wild type C57BL/6 mice: hepatocyte proliferation, β-catenin activation, cyclin-D1; format: in vivo; details: vs DMSO control
Experimental: All studies on mice were performed in strict accordance with Guidelines. Eight-week old male C57BL/6 male mice (Jackson/Charles River) were maintained on a standard laboratory basal diet (Test Diet) (n=4), or fed a T3-supplemented diet (4 mg/Kg of diet, Sigma Chemicals, St. Louis Mo.) (n=4). GC-1 was administered to the eight week-old male C57BL/6 male mice either via GC-1-supplemented diet (5 mg/Kg of diet, Medchem Express) for 8 days (n=4) or via daily intraperitoneal injections (IP) of GC-1 dissolved in DMSO (0.3 mg/kg/dose) for 8 days (n=7). As a control group for injections, DMSO alone was injected daily intraperitoneal (IP) for 8 days (n=5). Mice were sacrificed 24 hours after the last injection.
To label dividing hepatocytes, BrdU (5-bromodeoxyuridine) dissolved in drinking water (1 mg/ml) was given to all animals throughout the experiment period. The animals were given food and water ad libitum with a 12-hour light/dark daily cycle.
Four micron liver sections were analyzed by immunohistochemistry for β-Catenin (BD Biosciences, San Jose, Calif.), Cyclin-D1 (Thermo-Scientific, Fremont, Calif.) and PCNA (Santa Cruz Biotechnology, Dallas, Tex.). Briefly, formalin-fixed sections were deparaffinized in graded xylene and alcohol. Endogenous peroxidase was inactivated using 3% hydrogen peroxide (Sigma). For β-Catenin, Cyclin-D1 staining, slides were microwaved in Citrate buffer followed by blocking with Superblock for 10 minutes. Sections were then incubated with secondary anti-mouse (for β-catenin) or anti-rabbit (for Cyclin-D1) horseradish peroxidase-conjugated antibody for 30 minutes.
For PCNA, slides were microwaved in zinc sulfate for 12 minutes, followed by blocking with Superblock for 20 minutes. Sections were incubated with PCNA antibody (Santa Cruz) diluted 1:4,000 in phosphate buffered saline (PBS) for 60 minutes. Slides then incubated with horse anti-mouse secondary antibody (1:700 dilution) for 30 minutes. ABC was applied for 30 minutes. DAB kit was then applied. Slides were then dehydrated, coverslips placed, and allowed to dry.
Bromodeoxyuridine (BrdU) was stained with mouse antibody (Becton Dickinson) as previously described (Fanti et al. (2014) Hepatology 59, 2309-2320). Briefly, tissue sections were deparaffinized, exposed to 0.3% hydrogen peroxide in deionized water for 10 minutes to block endogenous peroxidase, treated with 2N HCl, incubated with trypsin 0.1% for 20 minutes and then with normal goat serum for 20 minutes at room temperature. Sections were then incubated overnight in cold room with anti-BrdU monoclonal antibody, followed by biotinylated goat anti-mouse IgG. DAB kit was then applied, and sections were counterstained with hematoxylin. A small segment of intestine was included from each mouse as a positive control for the staining. For quantification of BrdU staining, at least 10 high power fields (400× or 600×) fields each from at least three biological replicates were counted as indicated in the figures. Statistical analysis was performed as described below.
Protein extraction from frozen liver tissue and western blot analysis were performed as previously described (Fanti et al., (2014) Hepatology 59, 2309-2320). For protein extraction, a small amount of frozen liver tissue was obtained (over dry ice) and was homogenized using RIPA buffer with protease and phosphatase inhibitor cocktail (Sigma, St. Louis, Mo.). Samples were transferred to a 1.5 ml tube on ice, and spun in cold room centrifuge at 14,000 RPM for 5 minutes. […]

[2] = tested on: β-catenin-TCF4 reporter activity in Snu-398 cells (point-mutant β-catenin); test: TopFlash reporter assay in Snu-398 cells; format: cell-based, human; details: 7 μM GC-1 (methods: 5-7 μM, 24 hours), vs DMSO
Text: Three liver tumor cell lines Hep3B, HepG2 and Snu-398 cells were obtained from ATCC (Manassas, Va.). Cells were transfected simultaneously with Renilla reniformis luciferase (pRL-TK; Promega, Madison, Wis.) as a transfection control and TopFlash firefly luciferase plasmids (Upstate Biotechnology, Lake Placid, N.Y.), which contains three copies of the Tcf/Lef sites upstream of a thymidine kinase (TK) promoter and the firefly luciferase gene using Lipofectamine 2000 (Life Technologies). Twenty-four hours after transfection, cells were treated with either DMSO (Fisher Scientific) or 5-7 μM GC-1 (Medchem Express, Monmouth Junction, N.J.) for 24 hours. Lysates were harvested using the Dual-Luciferase Reporter Assay System (Promega, Madison, Wis.). Firefly luciferase signals were normalized to Renilla luciferase and ratio between groups compared by student's t-test to determine significance. P<0.05 was considered significant.

hepatocytes [3] = test: T3 or GC-1 in LRP5-6 LKO mice and littermate controls; format: in vivo
Experimental: Eight to 10 week-old LRP5-6-LKO were obtained from breeding homozygous LRP5-6 double floxed mice with albumin-cre transgenic mice as described previously (Yang et al. (2014) Hepatology 60, 964-976). LRP5-6-LKO or sex matched littermate controls were given either T3-supplemented diet (n=4), basal diet (n=3), IP GC-1 (n=3) or IP DMSO (n=3). Mice were sacrificed at 24 hours after the last IP injection.
To label dividing hepatocytes, BrdU (5-bromodeoxyuridine) dissolved in drinking water (1 mg/ml) was given to all animals throughout the experiment period. The animals were given food and water ad libitum with a 12-hour light/dark daily cycle. […]
Protein extraction from frozen liver tissue and western blot analysis were performed as previously described (Fanti et al., (2014) Hepatology 59, 2309-2320). For protein extraction, a small amount of frozen liver tissue was obtained (over dry ice) and was homogenized using RIPA buffer with protease and phosphatase inhibitor cocktail (Sigma, St. Louis, Mo.). Samples were transferred to a 1.5 ml tube on ice, and spun in cold room centrifuge at 14,000 RPM for 5 minutes. Pellet was then discarded and sample was aliquoted and stored at −80 C for use. Fifty micrograms of the proteins were resolved by sodium dodecyl sulfate-polyacrylamide gel electrophoresis analysis, and transferred to immobilon-polyvinylidene difluoride membranes.
The primary antibodies used were against β-catenin (BD Biosciences); pSer675-β-catenin, pSer552-β-catenin, Active-β-catenin (Cell-Signaling), Cyclin-D1 (Thermo-Scientific), and β-Actin (Sigma). Dilutions of primary antibody were done according to manufacturer recommendations (1:1000 for all except Cyclin-D1 which was 1:200). Horseradish peroxidase-conjugated secondary antibodies used were goat anti-mouse (1:20,000) and goat anti-rabbit (1:10,000) (Millipore). The proteins were detected by Super-Signal West Pico Chemiluminescense Substrate (Thermo Scientific, Rockford Ill.) and visualized by autoradiography. […]

Cc1cc(OCC(=O)O)cc(C)c1Cc1ccc(O)c(C(C)C)c1 [GC-1, Sobetirome]
PCNA-positive hepatocytes and BrdU incorporation (hepatocyte proliferation) (hepatocytes [1]; GC-1 0.3 mg/Kg/dose daily IP in DMSO, 8 days, 0.3 mg/kg): increased number of PCNA-positive hepatocytes as well as BrdU incorporation; also recorded: increased proliferation | P-Ser675-β-catenin level, Western blot of whole liver lysates (hepatocytes [1]; GC-1 0.3 mg/Kg/dose daily IP): increased | cyclin-D1 immunohistochemistry (hepatocytes [1]; GC-1 0.3 mg/Kg/dose daily IP): many positive hepatocytes | cyclin-D1 level, Western blot of whole liver lysates (hepatocytes [1]; GC-1 0.3 mg/Kg/dose daily IP): increased | total β-catenin level, Western blot (hepatocytes [1]; GC-1 0.3 mg/Kg/dose daily IP): did not show much difference | TopFlash luciferase reporter activity [2]: no significant effect; also recorded: insignificant differences | pSer675-β-catenin levels, Western blot (hepatocytes [3]; LRP5-6-LKO and littermate controls): comparable or even greater levels | pSer552-β-catenin levels, Western blot (hepatocytes [3]; LRP5-6 LKO): modest increase | active β-catenin levels (hepatocytes [3]; LRP5-6 LKO after T3 or GC-1 feeding vs basal diet): no notable differences | cyclin-D1 protein and mRNA expression (hepatocytes [3]; LRP5-6 LKO vs controls): decreased | numbers of cyclin-D1-positive hepatocytes (immunohistochemistry) (hepatocytes [3]; LRP5-6 LKO vs controls): notably decreased | total β-catenin levels (hepatocytes [3]; LRP5-6 LKO vs controls): comparable levels | number of BrdU-labeled hepatocyte nuclei (hepatocytes [3]; LRP5-6 LKO vs controls, T3 diet 4 mg/Kg of diet or GC-1 0.3 mg/Kg/dose IP 8 days): notable decrease | active β-catenin levels in liver lysates (hepatocytes [3]; control mice fed T3 or GC-1 diet for 8 days vs basal diet): dramatic increase
